This note sets out measurements from patent US4853407A, “Aminoethylcysteine derivatives” (Sanraku Incorporated, priority 1987, dated 1989).

pIC50: −log10 of the molar value.

The nature of series [1]: In vivo test on dipeptidase-inhibiting activity (recovery of co-administered antibiotic 88617 in urine). Also noted: species or system ddY mice. As to conditions: mouse, sc; control: antibiotic 88617 alone, 20 mg/kg subcutaneous; urine collected 6 hours; average of five mice; read-out: Recovery ratio of antibiotic 88617 in urine. The protocol: (§1) Five weeks aged ddY mice were grouped five mice for one group, and aqueous solutions containing 80 or 250 mg/ml concentration of the dipeptidase-inhibiting agent of this invention (adjusted with 1N NaOH to pH 7.5) were intravenously administered to the mice. A control group was administered with a same amount of pure water. 3 to 5 minutes after the administration, 0.25 ml of an antibiotic 88617 (M/100 PBS, pH 7.0 solutions) at 5 or 20 mg/kg-mouse were subcutaneously administered to the mice. Six hours after the administration of the antibiotic 88617, all the urines of the mice were collected and the concentrations of the antibiotic 88617 in all the collected urines were measured by disc-agar diffusion method in which Comamonas terrigena was used as test bacteria, and average values of five mice were determined.

The target of series [2] is T1, dipeptidase (Rattus norvegicus, UniProt P31430).
T1 construct: to obtain a partially purified sample of dipeptidase; from tissue; host or cells: rat kidney, microsome fraction, trypsin-treated, Triton X-100 solubilised, partially purified
The series can be described thus: In vitro test on dipeptidase-inhibiting activity (antibiotic PS-5 as substrate, absorbance at 301 nm). It is filed as biochemical. As to conditions: partially purified dipeptidase from rat kidney; substrate antibiotic PS-5, pH 8.0, 37° C., 5 minutes; read-out: ID50 (the source's name). Here is the method: Rats were sacrificed by decapitation to bleed, and about 12 g of fresh kidneys were collected. And a microsome fraction was obtained by subcellular fractionating method according to fractional centrifugation of Hogboom (Methods in Enzymology, vol. 1, pages 16-19, Academic Press, New York, 1955). This microsome fraction was treated with 400 μg/ml of trypsin at 0° C. for 16 hours, and then subjected to fractional ultracentrifugation at 10^5 G at 0° C. for 60 minutes.
The resultant precipitate was solubilized by 20 ml of Tris-HCl buffer (20 mM, pH 7.6) containing a surfactant (0.4% Triton® X-100), and subjected to fractional ultracentrifugation at 10^5 G at 0° C. for 60 minutes. […]
The enzyme obtained above ([…]) was preincubated together with 30 μl of an inhibiting agent solution in a cuvette at 37° C. for 5 minutes. […] The reaction was carried out within a cuvette of HITACHI spectrophotometer equipped with a constant temperature device (37° C.), and decreases of absorbance at a wavelength of 301 nm for 5 minutes were determined by a recorder.
By the values obtained above and values from control containing no inhibiting agent, the percent inhibition and ID50 at a predetermined inhibition concentration were determined.

Series [3] concerns dipeptidase. The series can be described thus: In vivo test on dipeptidase-inhibiting activity (recovery of co-administered antibiotic 88617 in urine). Also noted: species or system ddY mice. As to conditions: 6 hours, average of five mice. The protocol:
as §1

T1 sequence (P31430 17-410): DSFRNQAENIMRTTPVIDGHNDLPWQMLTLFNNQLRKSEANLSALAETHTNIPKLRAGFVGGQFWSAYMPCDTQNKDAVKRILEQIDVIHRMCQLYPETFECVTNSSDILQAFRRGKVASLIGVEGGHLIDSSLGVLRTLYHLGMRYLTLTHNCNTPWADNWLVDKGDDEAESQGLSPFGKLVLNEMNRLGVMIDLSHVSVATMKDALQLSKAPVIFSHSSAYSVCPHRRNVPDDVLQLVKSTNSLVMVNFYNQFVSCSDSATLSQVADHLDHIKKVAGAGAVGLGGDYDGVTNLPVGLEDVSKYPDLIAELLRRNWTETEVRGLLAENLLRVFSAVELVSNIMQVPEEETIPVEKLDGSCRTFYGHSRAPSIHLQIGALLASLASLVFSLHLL

With `CN=C(CSC1=C(C(=O)O)N2C(=O)C(C(C)F)C2C1)N(C)C` (centres unmarked) [Antibiotic 88617, reference compound], the dose excreted at 6 h in series [1] amounted to 27.5%.
Turning to `O=C(NCCSC[C@H](NC(=O)c1ccccc1)C(=O)O)c1ccccc1` [Compound No. 1, N-benzoyl-S-(2-benzoylaminoethyl)-L-cysteine], at dipeptidase [2], the pIC50 was 3.68. Further, the “Recovery ratio of antibiotic 88617 in urine when dipeptidase-inhibiting agent was co-administered” value worked out at 38.0% with dipeptidase [3] (inhibitor 50 mg/kg intravenous in combination with antibiotic 88617 20 mg/kg subcutaneous) and 57.2% in the series with dipeptidase [3] (inhibitor 250 mg/kg intravenous in combination with antibiotic 88617 20 mg/kg subcutaneous).
Consider `O=C(O)[C@H](CSCCN1C(=O)c2ccccc2C1=O)N1C(=O)c2ccccc2C1=O` [Compound No. 2, S-(2-phthalimidethyl)-N-phthaloyl-L-cysteine], for which the pIC50 on dipeptidase [2] was 3.32.
